From patent US8871756B2 (Hoffmann-La Roche Inc., priority 2011, dated 2014)

System: RSV Long strain
Experiment: Viral cytopathic effect (CPE) assay, anti-RSV activity
Assay type: cell-based, Respiratory Syncytial Virus
Settings: RSV Long strain (ATCC), cell viability after 6 days, Cell Counting kit-8
Method in brief: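 Cells (6×10^3/well, DMEM with 10% FBS) were infected next day with RSV Long strain, at a dose giving approximately 80–90% CPE, alongside serial half-log compound dilutions. Viability was read after 6 days by CCK-8 absorbance at 450 nm (reference 630 nm), and EC50 was derived from it.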

[1] = human respiratory syncytial virus, 144 h

EC50 [1]	EC50	SMILES
1.5 µM		Cc1cccc2c(NCCCN)cc(N3CCS(=O)(=O)c4ccccc4C3)nc12 [Example 17-5, N-[2-(1,1-Dioxido-2,3-dihydro-1,4-benzothiazepin-4(5H)-yl)-8-methylquinolin-4-yl]propane-1,3-diamine]
0.086 µM		Cc1cccc2nc(N3CCS(=O)(=O)c4ccccc4C3)cc(NCCCN)c12 [Example 17-6, N-[2-(1,1-Dioxido-2,3-dihydro-1,4-benzothiazepin-4(5 H)-yl)-5-methylquinolin-4-yl]propane-1,3-diamine]
0.642 µM		Cc1ccc2c(NCCCN)cc(N3CCS(=O)(=O)c4ccccc4C3)nc2c1 [Example 17-7, N-[2-(1,1-Dioxido-2,3-dihydro-1,4-benzothiazepin-4(5H)-yl)-7-methylquinolin-4-yl]propane-1,3-diamine]
0.021 µM		NCC1(CNc2cc(N3CCS(=O)(=O)c4ccccc4C3)nc3ccc(F)cc23)COC1 [Example 17-8, N-{[3-(Aminomethyl)oxetan-3-yl]methyl}-2-(1,1-dioxido-2,3-dihydro-1,4-benzothiazepin-4(5H)-yl)-6-fluoroquinolin-4-amine]
	0.003 µM	Cc1ccc2nc(N3CC[S+]([O-])c4ccccc4C3)cc(NCC3(N)COC3)c2c1 (stereo not shown) [Example 18-1, N-[(3-Aminooxetan-3-yl)methyl]-6-methyl-2-(1-oxido-2,3-dihydro-1,4-benzothiazepin-4(5H)-yl)quinolin-4-amine]
0.061 µM		NC1(CNc2cc(N3CC[S+]([O-])c4ccccc4C3)nc3ccc(Cl)cc23)COC1 (stereo not shown) [Example 18-4, N-[(3-Aminooxetan-3-yl)methyl]-6-chloro-2-(1-oxido-2,3-dihydro-1,4-benzothiazepin-4 (5H)-yl)quinolin-4-amine]
0.057 µM		Cc1ccc2nc(N3CC[S+]([O-])c4ccccc4C3)cc(NCC(F)(F)CN)c2c1 (stereo not shown) [Example 18-5, N-[2-(1-Oxido-2,3-dihydro-1,4-benzothiazepin-4(5H)-yl)-6-methylquinolin-4-yl]-2,2-difluoropropane-1,3-diamine]
0.061 µM		NCC(F)(F)CNc1cc(N2CC[S+]([O-])c3ccccc3C2)nc2ccc(Cl)cc12 (stereo not shown) [Example 18-6, N-[6-Chloro-2-(1-oxido-2,3-dihydro-1,4-benzothiazepin-4(5H)-yl)quinolin-4-yl]-2,2-difluoropropane-1,3-diamine]
0.023 µM		NCCNc1cc(N2CC[S+]([O-])c3ccccc3C2)nc2ccc(Cl)cc12 (stereo not shown) [Example 18-7, N-[6-Chloro-2-(1-oxido-2,3-dihydro-1,4-benzothiazepin-4(5H)-yl)quinolin-4-yl]ethane-1,2-diamine]
0.0007 µM		Cc1ccc2nc(N3CC[S+]([O-])c4ccccc4C3)cc(NCC3(CN)COC3)c2c1 (stereo not shown) [Example 18-8, N-{[3-(Aminomethyl)oxetan-3-yl]methyl}-6-methyl-2-(1-oxido-2,3-dihydro-1,4-benzothiazepin-4(5H)-yl)quinolin-4-amine]
0.005 µM		NCC1(CNc2cc(N3CC[S+]([O-])c4ccccc4C3)nc3ccc(Cl)cc23)COC1 (stereo not shown) [Example 18-9, N-{[3-(Aminomethyl)oxetan-3-yl]methyl}-6-chloro-2-(1-oxido-2,3-dihydro-1,4-benzothiazepin-4(5H)-yl)quinolin-4-amine]
0.011 µM		Cc1ccc2nc(N3CC[S+]([O-])c4ccccc4C3)cc(NCCN)c2c1 (stereo not shown) [Example 18-10, N-[6-Methyl-2-(1-oxido-2,3-dihydro-1,4-benzothiazepin-4(5H)-yl)quinolin-4-yl]ethane-1,2-diamine]
0.619 µM		Cc1ccc2nc(N3CC[S+]([O-])c4ccccc4C3)cc(NCCO)c2c1 (stereo not shown) [Example 18-11, 2-{[6-Methyl-2-(1-oxido-2,3-dihydro-1,4-benzothiazepin-4(5H)-yl)quinolin-4-yl]amino}ethanol]
0.011 µM		Cc1ccc2nc(N3CCS(=O)(=O)c4ccccc4C3)cc(N3C[C@@H]4[C@@H](N)[C@@H]4C3)c2c1 [Example 19-2, (1R,5S,6S)-3-[2-(1,1-Dioxido-2,3-dihydro-1,4-benzothiazepin-4(5H)-yl)-6-methylquinolin-4-yl]-3-azabicyclo[3.1.0]hexan-6-amine]
0.02 µM		Cc1ccc2nc(N3CC[S+]([O-])c4ccccc4C3)cc(N3CCC(N)C3)c2c1 (stereo not shown) [Example 19-4, 1-[6-Methyl-2-(1-oxido-2,3-dihydro-1,4-benzothiazepin-4(5H)-yl)quinolin-4-yl]pyrrolidin-3-amine]
2.75 µM		Cc1ccc2nc(N3CCS(=O)(=O)c4ccccc4C3)cc(N3CC4CC3C4N)c2c1 (stereo not shown) [Example 19-8, 2-[2-(1,1-Dioxido-2,3-dihydro-1,4-benzothiazepin-4(5H)-yl)-6-methylquinolin-4-yl]-2-azabicyclo[2.1.1]hexan-5-amine]
0.073 µM		COc1ccc2c(c1)S(=O)(=O)CCN(c1cc(N)c3cc(C)ccc3n1)C2 [Example 20-1, 2-(8-Methoxy-1,1-dioxido-2,3-dihydro-1,4-benzothiazepin-4(5H)-yl)-6-methylquinolin-4-amine]

EC50 [1]	EC50	SMILES
0.31 µM		COc1ccc2c(c1)CN(c1cc(N)c3cc(C)ccc3n1)CCS2(=O)=O [Example 20-2, 2-(7-Methoxy-1,1-dioxido-2,3-dihydro-1,4-benzothiazepin-4(5H)-yl)-6-methylquinolin-4-amine]
0.093 µM		Cc1ccc2nc(N3CCS(=O)(=O)c4ccccc4C3)cc(NCCC3(N)CC3)c2c1 [Example 20-3, [2-(1-Amino-cyclopropyl)-ethyl]-[2-(1,1-dioxido-2,3-dihydro-1,4-benzothiazepin-4(5H)-yl)-6-methylquinolin-4-yl]-amine]
0.023 µM		Cc1ccc2nc(N3CCS(=O)(=O)c4ccccc4C3)cc(NCC3CNCCO3)c2c1 (stereo not shown) [Example 21-1, 2-(1,1-Dioxido-2,3-dihydro-1,4-benzothiazepin-4(5H)-yl)-6-methyl-N-(morpholin-2-ylmethyl)quinolin-4-amine]
0.161 µM		Cc1ccc2nc(N3CCS(=O)(=O)c4ccccc4C3)cc(N(C)CCN)c2c1 [Example 21-2, N-[2-(1,1-Dioxido-2,3-dihydro-1,4-benzothiazepin-4(5H)-yl)-6-methylquinolin-4-yl]-N-methylethane-1,2-diamine]
0.015 µM		Cc1ccc2nc(N3CCS(=O)(=O)c4ccccc4C3)cc(NCC3CCN3)c2c1 (stereo not shown) [Example 21-3, N-(Azetidin-2-ylmethyl)-2-(1,1-dioxido-2,3-dihydro-1,4-benzothiazepin-4(5H)-yl)-6-methylquinolin-4-amine]
0.004 µM		Cc1ccc2nc(N3CCS(=O)(=O)c4ccccc4C3)cc(NC3CCNC3)c2c1 (stereo not shown) [Example 21-4, 2-(1,1-Dioxido-2,3-dihydro-1,4-benzothiazepin-4(5H)-yl)-6-methyl-N-(pyrrolidin-3-yl)quinolin-4-amine]
0.007 µM		Cc1ccc2nc(N3CCS(=O)(=O)c4ccccc4C3)cc(NCC3(N)CC3)c2c1 [Example 21-5, (1-Amino-cyclopropylmethyl)-[2-(5,5-dioxo-5,6,7,9-tetrahydro-5λ^6-thia-8-aza-benzocyclohepten-8-yl)-6-methyl-quinolin-4-yl]-amine]
0.036 µM		O=S1(=O)CCN(c2cc(NC3CNC3)c3cc(Cl)ccc3n2)Cc2ccccc21 [Example 22, N-(Azetidin-3-yl)-6-chloro-2-(1,1-dioxido-2,3-dihydro-1,4-benzothiazepin-4(5H)-yl)quinolin-4-amine]
5.19 µM		Cc1ccc2nc(N3CCS(=O)(=O)c4ccccc4C3)cc(N3CC(N)C4(COC4)C3)c2c1 (stereo not shown) [Example 23, 6-[2-(1,1-Dioxido-2,3-dihydro-1,4-benzothiazepin-4(5 H)-yl)-6-methylquinolin-4-yl]-2-oxa-6-azaspiro[3.4]octan-8-amine]
0.002 µM		Cc1ccc2nc(N3CCS(=O)(=O)c4ccccc4C3)cc(N3CCC(N)C3)c2c1 (stereo not shown) [Example 25, 1-[2-(1,1-Dioxido-2,3-dihydro-1,4-benzothiazepin-4(5H)-yl)-6-methylquinolin-4-yl]pyrrolidin-3-amine]
0.005 µM		Cc1ccc2nc(N3CCS(=O)(=O)c4ccccc4C3)cc(NC3CNC3)c2c1 [Example 26-1, N-(Azetidin-3-yl)-2-(1,1-dioxido-2,3-dihydro-1,4-benzothiazepin-4(5H)-yl)-6-methylquinolin-4-amine]
0.179 µM		Cc1ccc2nc(N3CCS(=O)(=O)c4ccccc4C3)cc(N3CC(N)C3)c2c1 [Example 26-2, 1-[2-(1,1-Dioxido-2,3-dihydro-1,4-benzothiazepin-4(5H)-yl)-6-methylquinolin-4-yl]azetidin-3-amine]
2.39 µM		Cc1ccc2nc(N3CCS(=O)(=O)c4ccccc4C3)cc(NC(=O)[C@@H]3CCCN3)c2c1 [Example 27, N-[2-(1,1-Dioxido-2,3-dihydro-1,4-benzothiazepin-4(5H)-yl)-6-methylquinolin-4-yl]prolinamide]
0.007 µM		Cc1ccc2nc(N3CCS(=O)(=O)c4ccccc4C3)cc(NC3CNCC3F)c2c1 (stereo not drawn) [Example 28-1, 2-(1,1-Dioxido-2,3-dihydro-1,4-benzothiazepin-4(5H)-yl)-N-trans-(4-fluoropyrrolidin-3-yl)-6-methylquinolin-4-amine]
0.042 µM		NCCCNc1cc(N2CCS(=O)(=O)c3ccccc3C2)nc2ccc(O)cc12 [Example 29, 4-[(3-Aminopropyl)amino]-2-(1,1-dioxido-2,3-dihydro-1,4-benzothiazepin-4(5H)-yl)quinolin-6-ol]
0.317 µM		NCCCNc1cc(N2CCS(=O)(=O)c3ccccc3C2)nc2ccc(OCCO)cc12 [Example 30-1, 2-({4-[(3-Aminopropyl)amino]-2-(1,1-dioxido-2,3-dihydro-1,4-benzothiazepin-4(5 H)-yl)quinolin-6-yl}oxy)ethanol]
0.218 µM		COCCOc1ccc2nc(N3CCS(=O)(=O)c4ccccc4C3)cc(NCCCN)c2c1 [Example 30-2, N-[2-(1,1-Dioxido-2,3-dihydro-1,4-benzothiazepin-4(5H)-yl)-6-(2-methoxyethoxy)quinolin-4-yl]propane-1,3-diamine]
